Source: US10494333B2, “Compound having BLT inhibitory activity and composition, for preventing or treating inflammatory diseases, comprising same as active ingredient” (DONGGUK UNIVERSITY INDUSTRY-ACADEMIC COOPERATION FOUNDATION, priority 2015, dated 2019)

Tests used:
[1] = tested on: ovarian cancer cells (SKOV-3 cells); assay: Death of anticancer agent-resistant ovarian cancer cells on co-treatment with cisplatin (MTT); format: cell-based; conditions: 10 μM pre-treated 30 minutes, cisplatin 50 μM, 24 hours, LY255283 compared to cisplatin alone, AC compounds compared with LY255283 co-treatment
Protocol: The death of cancer cells was detected using a 3-(4,5-dimethylthiazol-2-yl)-2,5-diphenyltetrazolium bromide (MTT) method. More specifically, 1×10^5 of the ovarian cancer cells (SKOV-3 cells) resistant to the anti-cancer agents were dispensed on a 12-well culture dish, and cultured for 24 hours. A 0.5% serum RPMI medium was pre-treated with each of the compound prepared in one of the examples (10 μM), 10 μM of DMSO (compound solvent) as a control, and 10 μM of LY255283 as a positive control for 30 minutes. Afterward, 50 μM of an anti-cancer agent, cisplatin, was treated, and then the cells were cultured 24 hours. A 20 μL of an MTT solution (5 mg/mL, Sigma-Aldrich) was added to each well, and the cells were cultured in a humid CO2 incubator at 37° C. for 4 hours. Afterward, the supernatant was removed, and 500 µL of DMSO was added to each well to dissolve insoluble violet formazan crystals. Absorbance was measured using a microplate reader (Molecular Devices, Sunnyvale, Calif.) at 550 nm, and the measurement was repeated three times.

BLT2 [2] = target: T1, BLT2 (Homo sapiens, UniProt Q9NPC1); assay: LTB4-induced BLT2-dependent chemotactic motility (Transwell); format: cell-based; set-up: expressed in transfected cells; conditions: CHO-BLT2 cells, LTB4 300 nM
T1 sequence (Q9NPC1 with tags, fused parts or gaps): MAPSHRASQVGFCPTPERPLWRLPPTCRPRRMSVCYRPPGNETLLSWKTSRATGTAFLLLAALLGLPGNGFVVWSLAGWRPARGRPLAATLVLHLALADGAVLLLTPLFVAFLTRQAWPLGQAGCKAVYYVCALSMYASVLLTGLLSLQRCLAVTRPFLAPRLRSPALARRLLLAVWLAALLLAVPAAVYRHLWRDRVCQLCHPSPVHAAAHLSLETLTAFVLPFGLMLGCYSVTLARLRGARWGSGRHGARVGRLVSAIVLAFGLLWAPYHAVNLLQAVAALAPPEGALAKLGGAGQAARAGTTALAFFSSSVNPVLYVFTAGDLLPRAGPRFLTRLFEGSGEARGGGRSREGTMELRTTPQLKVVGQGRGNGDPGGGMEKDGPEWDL
Protocol: (§1) In addition, in order to prepare stable CHO/BLT2 clones, CHO-K1 cells were transformed with pcDNA3-long form BLT2 encoding HA-tagged human BLT2, and selected with 0.4 mg/ml of G418 (Invitrogen, Carlsbad, Calif., USA).
(§2) Chemotactic motility was analyzed using a Transwell chamber including a polycarbonate filter (8-μm pore size, Corning Costar) with a 6.5-mm diameter. Specifically, the lower surface of the filter was coated with 10 μg/mL fibronectin in a serum-free RPMI 1640 medium at 37° C. for 1 hour. The experiment was performed by placing the filter dried and coated with RPMI 1640 media containing various amounts of LTB4 in the lower wells of the Transwell chamber, and loading CHO cells, which stably express both BLT1 and BLT2, into the upper wells containing serum-free RPMI 1640 media finally at 2×10^4 cells/100 μL. To evaluate the effect of inhibitors, the cells were pre-treated with each inhibitor for 30 minutes before dispensing. After the cells were cultured at 37° C. in 5% CO2 for 3 hours, the filters were fixed with methanol for 3 minutes, and stained with hematoxylin and eosin for 10 minutes. […] The chemotactic motility was quantitatively analyzed by counting the cells on the lower side of the filter under an optical microscope (magnification, 200×). For each analysis, 6 fields were subjected to counting, each sample was analyzed twice, and the analysis was repeated three times.

BLT1 = target: T2, BLT1 (Homo sapiens, UniProt Q15722); assay: LTB4-induced chemotactic motility of BLT1-expressing cells (Transwell); format: cell-based; conditions: CHO-BLT1 cells, LTB4 10 nM
T2 construct: expressed in transfected cells; host or cells: CHO cells (CHO-BLT1)
T2 sequence (Q15722 whole entry, species assumed): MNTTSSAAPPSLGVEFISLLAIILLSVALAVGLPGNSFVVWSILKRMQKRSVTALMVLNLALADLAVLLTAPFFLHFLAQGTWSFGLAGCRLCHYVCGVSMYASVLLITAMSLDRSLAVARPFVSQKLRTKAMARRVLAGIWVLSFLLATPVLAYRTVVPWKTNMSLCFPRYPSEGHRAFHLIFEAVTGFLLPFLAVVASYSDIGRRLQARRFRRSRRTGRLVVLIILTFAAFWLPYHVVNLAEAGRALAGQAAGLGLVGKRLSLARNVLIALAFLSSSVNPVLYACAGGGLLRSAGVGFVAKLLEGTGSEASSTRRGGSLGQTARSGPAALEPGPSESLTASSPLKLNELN
Protocol: as §2

interleukin-4 (IL-4) = assay: IL-4 production in severely asthma-induced mice; format: in vivo; conditions: severely asthma-induced mice (FIG. 8), cells separated from the abdominal cavity, pre-treated (method 5 mg/kg intraperitoneally)
Source text: Mast cells play a pivotal role in the initial reaction to asthma, and when an allergen enters the body from the outside through an airway, the mast cells are activated, thereby secreting various cytokines (interleukin-4 and interleukin-13). Due to the cytokines, the influx of inflammatory cells, and the generation of mucus and the airway contraction occur. The inventors used 7-week-old (18 to 20 g) female BALB/c mice provided by Orient (Seoungnam, Korea) for the experiment to confirm the anti-asthma effect, and asthma was induced in the mice. On day 1 and day 14, 2.5 mg of an adjuvant aluminum hydroxide gel (alum; Pierce, Rockford, Ill.) containing a […] of ovalbumin (OVA) was injected intraperitoneally to sensitize the female […] mice. After the two initial sensitizations, on day 21, day 22 and day 23, 1% OVA was sprayed into the mice using an ultrasonic nebulizer. […] After the initial sensitizations, on day 24, AHR was detected, and on day 25, the mice were dissected to observe asthma phenotypes such as the expression of an inflammatory cytokine IL-4, and the influx of the inflammatory cells (neutrophils). In addition, the AHR detection was performed after an airway constrictor methacholine (6.25 to 50 mg/ml depending on conditions) was administered to the mice. […] The AHR was analyzed using an enhanced pause as the indicator of the asthma phenomenon.

asthma-induced mice = assay: Airway hyperresponsiveness (AHR) in OVA asthma-induced mice; format: in vivo
Source text: Mast cells play a pivotal role in the initial reaction to asthma, and when an allergen enters the body from the outside through an airway, the mast cells are activated, thereby secreting various cytokines (interleukin-4 and interleukin-13). Due to the cytokines, the influx of inflammatory cells, and the generation of mucus and the airway contraction occur. The inventors used 7-week-old (18 to 20 g) female BALB/c mice provided by Orient (Seoungnam, Korea) for the experiment to confirm the anti-asthma effect, and asthma was induced in the mice. On day 1 and day 14, 2.5 mg of an adjuvant aluminum hydroxide gel (alum; Pierce, Rockford, Ill.) containing a […] of ovalbumin (OVA) was injected intraperitoneally to sensitize the female […] mice. After the two initial sensitizations, on day 21, day 22 and day 23, 1% OVA was sprayed into the mice using an ultrasonic nebulizer. […] After the initial sensitizations, on day 24, AHR was detected, and on day 25, the mice were dissected to observe asthma phenotypes such as the expression of an inflammatory cytokine IL-4, and the influx of the inflammatory cells (neutrophils). In addition, the AHR detection was performed after an airway constrictor methacholine (6.25 to 50 mg/ml depending on conditions) was administered to the mice. The administration of the airway constrictor was performed by spraying through an inlet of the chamber using an ultrasonic nebulizer for 3 minutes. The AHR was analyzed using an enhanced pause as the indicator of the asthma phenomenon.

[3] = tested on: BLT2-expressing cells (CHO-BLT2 cells); assay: Inhibition of LTB4-induced growth of BLT2-expressing cells (MTT); format: cell-based, human; conditions: LTB4 300 nM, 24 hours
Protocol: Cell viability according to treatment of the compounds prepared in the examples were measured by a 3-(4,5-dimethylthiazol-2-yl)-2,5-diphenyltetrazolium bromide (MTT) method.
More specifically, 1×10^4 each of the BLT2-nonexpressing cells (CHO-pcDNA3.1 cells) and BLT2-expressing cells (CHO-BLT2 cells), which were prepared in Experimental Example 1, were dispensed in a […], and cultured for 24 hours. Afterward, the culture medium was removed, a serum-free RPMI medium was added, and after two hours, the cells were pre-treated with each of the compound prepared in one of the examples (10 μM), 10 μM DMSO (compound solvent) as a control, and 10 μM of 1-[5-ethyl-2-hydroxy-4-[[6-methyl-6-(1H-tetrazol-5-yl)heptyl]oxy]phenyl]-ethanone (LY255283; Cayman) as a positive control for 1 hour. Subsequently, after treatment of LTB4 (300 nM), the cells were cultured for 24 hours. 20 μL of an MTT solution (5 mg/mL, Sigma-Aldrich) was added to each well, the cells were cultured in a humid CO2 incubator at 37° C. for 4 hours, and then the supernatant was removed, and 200 μL of DMSO was added to each well to dissolve insoluble violet formazan crystals. Absorbance was measured using a microplate reader (Molecular Devices, Sunnyvale, Calif.) at 550 nm, and the measurement was repeated three times.

[4] = tested on: BLT2-expressing cells (CHO-BLT2 cells); assay: LPA-induced chemotactic motility of CHO-BLT2 cells (Transwell); format: cell-based; conditions: LPA 100 nM
Protocol: Chemotactic motility was analyzed using a Transwell chamber including a polycarbonate filter (8-μm pore size, Corning Costar) with a 6.5-mm diameter. […] To evaluate the effect of inhibitors, the cells were pre-treated with each inhibitor for 30 minutes before dispensing. After the cells were cultured at 37° C. in 5% CO2 for 3 hours, the filters were fixed with methanol for 3 minutes, and stained with hematoxylin and eosin for 10 minutes. […] The chemotactic motility was quantitatively analyzed by counting the cells on the lower side of the filter under an optical microscope (magnification, 200×). For each analysis, 6 fields were subjected to counting, each sample was analyzed twice, and the analysis was repeated three times.

BLT2 [5] = target: T1, BLT2; assay: biochemical
Protocol: as §1

[6] = severely asthma-induced mice (FIG. 7), airway constrictor 50 mg/ml, pre-treated (method 5 mg/kg intraperitoneally)

Compound: CCCCC(=O)N(Cc1ccc(-c2ccc(OCC(=O)O)cc2)cc1)c1ccccc1 [AC-1073, 2-(4′-((N-phenylpentaneamido)methyl)biphenyl-4-yloxy)acetic acid]
- death of cancer cells on co-treatment with cisplatin [1]: highly increase

Compound: CCCCC(=O)N(Cc1ccc(-c2ccc(C(=O)O)cc2)cc1)c1ccc(F)cc1 [AC-1072, 4′-((N-(4-fluorophenyl)pentaneamido)methyl)biphenyl-4-carboxylic acid]
- death of cancer cells on co-treatment with cisplatin [1]: highly increase

Compound: CCCCC/C=C\C[C@@H](O)/C=C/C=C/C=C\[C@@H](O)CCCC(=O)O [LTB4, leukotriene B4, reference compound]
- chemotactic motility increase compared with ethanol (DMSO−) (BLT2 [2]): 2.9 times
- chemotactic motility increase compared with ethanol (DMSO−) (BLT1): 2.8 times

Compound: CCCCC(=O)N(Cc1ccc(-c2ccc(O)cc2)cc1)c1cccc(F)c1 [AC-1070, N-(3-fluorophenyl)-N-((4′-hydroxybiphenyl-4-yl)methyl)pentaneamide]
- death of cancer cells on co-treatment with cisplatin [1]: highly increase

Compound: CCc1cc(C(C)=O)c(O)cc1OCCCCCC(C)(C)c1nnn[nH]1 [LY255283, 1-[5-ethyl-2-hydroxy-4-[[6-methyl-6-(1H-tetrazol-5-yl)heptyl]oxy]phenyl]-ethanone, reference compound]
- death of cancer cells on co-treatment with cisplatin [1]: increased
- production of IL-4 reduced (interleukin-4 (IL-4)): 67.2%
- AHR reduced (asthma-induced mice; [6]): 69.2%
- chemotactic motility compared with those treated with the ligand LTB4 (BLT2 [2]; 10 μM pre-treatment): 90%
- cell growth compared with control DMSO ([3]; pre-treated with 10 μM): approximately 90%

Compound: CCCCC(=O)N(Cc1ccc(-c2ccc(OC)cc2)cc1)c1cccc(F)c1 [AC-1646, N-(3-fluorophenyl)-N-((4′-methoxybiphenyl-4-yl)methyl) pentaneamide]
- growth inhibitory effect ([3]; compound 10 μM pre-treated 1 hour): 72.1%

Compound: CCCCC(=O)N(Cc1ccc(-c2ccc(OCC(=O)O)cc2)cc1)c1cccc(F)c1 [AC-1074, 2-(4′-((N-(3-fluorophenyl)pentaneamido)methyl)biphenyl-4-yloxy)acetic acid]
- death of cancer cells on co-treatment with cisplatin [1]: highly increase
- production of IL-4 reduced (interleukin-4 (IL-4)): 35.5%
- AHR reduced (asthma-induced mice; asthma-induced mice (FIG. 6), airway constrictor methacholine 50 mg/ml, pre-treated (printed 10 μM; method 5 mg/kg intraperitoneally)): 42%
- AHR reduced (asthma-induced mice; [6]): 59%
- change in chemotactic motility compared with LPA (DMSO+) ([4]; 10 μM pre-treatment): no change
- IC50 (BLT2 [5]): 140 nM
- change in chemotactic motility compared with LTB4 (DMSO+) (BLT1; 10 μM pre-treatment): no change

Compound: lysophosphatidic acid [LPA, reference compound]
- chemotactic motility increase compared with ethanol (DMSO−) [4]: 3.4 times
